In patent publication US20250197376A1, “PYRAZINE AMIDE DERIVATIVES” (Novartis AG, priority 2022, published 2025):

tested on: 3D7 P. falciparum strain; assay: P. falciparum 3D7 parasite proliferation assay (SYBR Green); format: cell-based; conditions: Plasmodium falciparum, Erythrocyte; 3D7 P. falciparum infected human erythrocytes, 72 hours, SYBR Green fluorescence; read-out: Pf3D7 Activity
In short: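 3D7-infected O+ human erythrocytes (0.3% parasitemia, 2.5% hematocrit) were exposed to compound for 72 hours at 37 °C under 93% N2/4% CO2/3% O2. After overnight lysis with SYBR Green, fluorescence (ex 425/em 530 nm) gave parasite DNA content. EC50 was calculated against DMSO.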

Row | Structure (SMILES) | EC50
1 | Cc1c(-c2cncc(C(=O)N[C@H]3CC[C@H](N)CC3)n2)[nH]c2ccc(OC(F)(F)F)cc12 [Example 65, N-((1r,4r)-4-aminocyclohexyl)-6-(3-methyl-5-(trifluoromethoxy)-1H-indol-2-yl)pyrazine-2-carboxamide] | 10 to 100 nM
2 | CC(C)(N)CNC(=O)c1cncc(-c2[nH]c3ccccc3c2C(F)(F)F)n1 [Example 54, N-(2-amino-2-methylpropyl)-6-(3-(trifluoromethyl)-1H-indol-2-yl)pyrazine-2-carboxamide] | > 100 nM
3 | Cc1c(-c2cncc(C(=O)NCC(C)(C)N)n2)[nH]c2ccc(C(=O)NCC(C)(C)N)cc12 [Example 107, N-(2-amino-2-methylpropyl)-2-(6-((2-amino-2-methylpropyl)carbamoyl)pyrazin-2-yl)-3-methyl-1H-indole-5-carboxamide] | > 100 nM
4 | COc1cccc2[nH]c(-c3cncc(C(=O)NCC(C)(C)N)n3)cc12 [Example 30, N-(2-amino-2-methylpropyl)-6-(4-methoxy-1H-indol-2-yl)pyrazine-2-carboxamide] | > 100 nM
5 | Cc1c(-c2cncc(C(=O)NC(C)(C)CN)n2)[nH]c2ccccc12 [Example 88, N-(1-amino-2-methylpropan-2-yl)-6-(3-methyl-1H-indol-2-yl)pyrazine-2-carboxamide] | 10 to 100 nM
6 | Cc1c(-c2cncc(C(=O)NCC(C)(C)N)n2)[nH]c2cc(S(F)(F)(F)(F)F)ccc12 [Example 9, N-(2-amino-2-methylpropyl)-6-(3-methyl-6-(pentafluoro-[…]^6-sulfaneyl)-1H-indol-2-yl)pyrazine-2-carboxamide] | < 10 nM
7 | Cc1c(-c2cncc(C(=O)NCC(C)(C)N)n2)[nH]c2cc(OC(F)(F)F)ccc12 [Example 8, N-(2-amino-2-methylpropyl)-6-(3-methyl-6-(trifluoromethoxy)-1H-indol-2-yl)pyrazine-2-carboxamide] | < 10 nM
8 | COc1ccc2cc(-c3cncc(C(=O)NCC(C)(C)N)n3)[nH]c2c1 [Example 31, N-(2-amino-2-methylpropyl)-6-(6-methoxy-1H-indol-2-yl)pyrazine-2-carboxamide] | > 100 nM
9 | Cc1c(-c2cncc(C(=O)N(C)CC(C)(C)N)n2)[nH]c2ccc(OC(F)(F)F)cc12 [Example 62, N-(2-amino-2-methylpropyl)-N-methyl-6-(3-methyl-5-(trifluoromethoxy)-1H-indol-2-yl)pyrazine-2-carboxamide] | 10 to 100 nM
10 | Cc1c(-c2cncc(C(=O)NC34CC(N)(C3)C4)n2)[nH]c2ccc(OC(F)(F)F)cc12 [Example 64, N-(3-aminobicyclo[1.1.1]pentan-1-yl)-6-(3-methyl-5-(trifluoromethoxy)-1H-indol-2-yl)pyrazine-2-carboxamide] | 10 to 100 nM
11 | CC(C)(N)CNC(=O)c1cncc(-c2cc3cnc(Cl)cc3[nH]2)n1 [Example 40, N-(2-amino-2-methylpropyl)-6-(6-chloro-1H-pyrrolo[3,2-c]pyridin-2-yl)pyrazine-2-carboxamide] | > 100 nM
12 | Cc1c(-c2cncc(C(=O)NCC(C)(C)N)n2)[nH]c2cc(OC(F)F)ccc12 [Example 69, N-(2-Amino-2-methylpropyl)-6-(6-(difluoromethoxy)-3-methyl-1H-indol-2-yl)pyrazine-2-carboxamide] | 10 to 100 nM
13 | Cc1c(-c2cncc(C(=O)N(C)CC(C)(C)N)n2)[nH]c2ccccc12 [Example 66, N-(2-amino-2-methylpropyl)-N-methyl-6-(3-methyl-1H-indol-2-yl)pyrazine-2-carboxamide] | > 100 nM
14 | COC(=O)c1ccc2cc(-c3cncc(C(=O)NCC(C)(C)N)n3)[nH]c2c1 [Example 29, Methyl 2-(6-((2-amino-2-methylpropyl)carbamoyl)pyrazin-2-yl)-1H-indole-6-carboxylate] | 10 to 100 nM
